Consider four compounds from ChEMBL document CHEMBL1156904, “Part II: piperazinyl-glutamate-pyridines as potent orally bioavailable P2Y12 antagonists for inhibition of platelet aggregation” (Bioorg Med Chem Lett, 2010).

In general, fraction unbound refers to free concentration divided by total concentration. For orientation: IC50 means the point on the concentration scale where inhibition reaches its midpoint. By solubility is commonly meant how much of the substance goes into solution per volume. One may read the Ki as a dissociation constant, usually derived from enzyme kinetics or from competition with a known ligand. The bioavailability is the share of a dose that reaches the circulation, judged against a reference dose that is usually intravenous. Low readings indicate poor availability, high ones good availability.

The nature of data set [1]: Protein binding in human plasma assessed as fraction unbound at 10 uM.
Data set [2] in a line: Protein binding in human plasma assessed as fraction unbound at 2 uM.
Data set [3] can be described thus: Antiplatelet activity in human platelet rich plasma assessed as inhibition of ADP-induced platelet aggregation by chronolog PRP aggregometry assay. Format: functional.
Data set [4] in a line: Volume of distribution at steady state in Sprague-Dawley rat at 2 mg/kg, iv and 5 mg/kg, po. The format is ADME, organism-based. The note with it: in vivo, read-out: Vdss.
Data set [5] is described as follows: Protein binding in human plasma assessed as fraction unbound at 0.2 uM.
Data set [6] in a line: Clearance in Sprague-Dawley rat at 2 mg/kg, iv and 5 mg/kg, po. The format is ADME, organism-based. The following applies: in vivo.
Data set [7] is described as follows: Metabolic stability in human microsomes. The format is ADME, Microsome.
Data set [8] is described as follows: Antiplatelet activity in human platelet rich plasma assessed as inhibition of ADP-induced platelet aggregation relative to AZD-6140. The format is functional.
Data set [9] in a line: Solubility at pH 2.0. The format is physicochemical. The note with it: buffer.
Data set [10] in a line: Clearance in Beagle dog at 0.5 mg/kg, iv and 1 mg/kg, po. The following applies: in vivo. The format is ADME, organism-based, Canis lupus familiaris.
Data set [11] concerns the target T1, P2Y purinoceptor 12 (Homo sapiens, UniProt Q9H244). The data set is described as follows: Inhibition of human P2Y12 receptor expressed in CHO cells in presence of 0.4% human serum albumin.
Data set [12] in a line: Effective half life in Sprague-Dawley rat at 2 mg/kg, iv and 5 mg/kg, po. The note with it: in vivo, read-out: t1/2eff (converted). The format is ADME, organism-based.
In data set [13] the target is T1, P2Y purinoceptor 12. The data set is described as follows: Inhibition of human P2Y12 receptor expressed in CHO cells.
Data set [14] can be described thus: Solubility at pH 6.5. The note with it: buffer. Format: physicochemical.
A short description of data set [15]: Antiplatelet activity in human platelet rich plasma assessed as inhibition of ADP-induced platelet aggregation. The format is functional.
Data set [16] concerns the target Voltage-gated inwardly rectifying potassium channel KCNH2 (Homo sapiens, UniProt Q12809). The data set is described as follows: Inhibition of human ERG.
The test system of data set [17] is Rattus norvegicus. Kind of data set: Toxicity in rat administered as 7 day repeat dose. The format is organism-based. The note with it: in vivo, 168 h.
Data set [18] can be described thus: Volume of distribution at steady state in Beagle dog at 0.5 mg/kg, iv and 1 mg/kg, po. Format: ADME, organism-based, Canis lupus familiaris. The note with it: in vivo, read-out: Vdss.
Data set [19] can be described thus: Metabolic stability in rat microsomes. The format is ADME, Microsome.
The nature of data set [20]: Effective half life in Beagle dog at 0.5 mg/kg, iv and 1 mg/kg, po. The format is ADME, organism-based, Canis lupus familiaris. The following applies: in vivo.
Data set [21] is described as follows: Solubility at pH 9.0. The format is physicochemical. The note with it: buffer.
The nature of data set [22]: in vivo. The note with it: Sprague-Dawley, rat, po, 5 mg/kg.
Data set [23] is described as follows: Effective half life in Beagle dog at 0.2 mg/kg, iv and 0.2 mg/kg, po. Format: ADME, organism-based, Canis lupus familiaris. The note with it: in vivo.
Data set [24] is described as follows: Volume of distribution at steady state in Beagle dog at 0.2 mg/kg, iv and 0.2 mg/kg, po. Format: ADME, organism-based, Canis lupus familiaris. The note with it: in vivo, read-out: Vdss.
A short description of data set [25]: Clearance in Beagle dog at 0.2 mg/kg, iv and 0.2 mg/kg, po. The format is ADME, organism-based, Canis lupus familiaris. The note with it: in vivo.
For data set [26], the system named is Rattus norvegicus. The data set is described as follows: Toxicity in rat administered as single dose. Format: organism-based. The note with it: in vivo.

Structures are written as SMILES. Converted amounts (≈) assume the structure as drawn. Bounds are passed on as bounds.

T1 sequence (Q9H244 whole entry): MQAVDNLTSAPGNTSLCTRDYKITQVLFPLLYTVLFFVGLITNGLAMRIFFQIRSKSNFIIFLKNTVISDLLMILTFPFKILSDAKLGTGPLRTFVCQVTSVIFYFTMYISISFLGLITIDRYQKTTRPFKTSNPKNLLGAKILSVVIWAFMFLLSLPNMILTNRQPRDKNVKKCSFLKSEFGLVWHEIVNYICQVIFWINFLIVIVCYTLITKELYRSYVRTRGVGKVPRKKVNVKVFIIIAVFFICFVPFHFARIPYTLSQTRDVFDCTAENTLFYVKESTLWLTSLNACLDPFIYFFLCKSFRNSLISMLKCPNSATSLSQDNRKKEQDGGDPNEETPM
Voltage-gated inwardly rectifying potassium channel KCNH2, sequence (Q12809 whole entry): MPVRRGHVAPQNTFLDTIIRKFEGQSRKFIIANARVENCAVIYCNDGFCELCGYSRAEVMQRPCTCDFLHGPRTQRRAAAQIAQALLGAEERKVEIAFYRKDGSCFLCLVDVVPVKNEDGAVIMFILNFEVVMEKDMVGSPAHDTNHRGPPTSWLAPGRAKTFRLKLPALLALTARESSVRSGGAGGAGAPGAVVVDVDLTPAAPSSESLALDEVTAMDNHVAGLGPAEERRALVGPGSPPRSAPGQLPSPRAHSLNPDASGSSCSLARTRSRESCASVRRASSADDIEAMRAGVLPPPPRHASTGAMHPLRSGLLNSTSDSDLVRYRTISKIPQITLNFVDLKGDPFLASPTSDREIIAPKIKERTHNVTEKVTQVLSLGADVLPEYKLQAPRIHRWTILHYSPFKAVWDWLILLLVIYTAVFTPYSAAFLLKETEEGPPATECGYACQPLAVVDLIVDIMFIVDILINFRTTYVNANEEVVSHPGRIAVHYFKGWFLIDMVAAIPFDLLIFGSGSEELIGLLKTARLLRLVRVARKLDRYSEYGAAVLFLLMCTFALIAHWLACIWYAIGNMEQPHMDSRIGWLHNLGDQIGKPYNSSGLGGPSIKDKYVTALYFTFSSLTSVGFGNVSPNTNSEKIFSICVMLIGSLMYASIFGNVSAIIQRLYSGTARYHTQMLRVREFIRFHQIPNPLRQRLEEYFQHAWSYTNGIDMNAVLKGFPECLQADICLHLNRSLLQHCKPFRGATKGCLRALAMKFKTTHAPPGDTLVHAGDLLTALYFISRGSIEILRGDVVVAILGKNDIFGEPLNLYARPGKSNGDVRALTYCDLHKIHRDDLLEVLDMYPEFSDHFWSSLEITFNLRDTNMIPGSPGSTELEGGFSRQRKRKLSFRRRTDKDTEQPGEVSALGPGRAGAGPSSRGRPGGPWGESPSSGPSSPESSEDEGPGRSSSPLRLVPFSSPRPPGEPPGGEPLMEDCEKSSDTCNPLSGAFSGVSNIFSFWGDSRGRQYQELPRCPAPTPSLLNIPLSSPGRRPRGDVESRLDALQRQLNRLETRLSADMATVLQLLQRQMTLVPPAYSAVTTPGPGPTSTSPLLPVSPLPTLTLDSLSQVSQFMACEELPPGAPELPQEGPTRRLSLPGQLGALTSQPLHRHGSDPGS

As for `CCCCCOC(=O)N1CCN(C(=O)[C@H](CCC(=O)O)NC(=O)c2cc(N3CCC(C(=O)N4CCCC4)CC3)cc(-c3ccccc3)n2)CC1`, the fraction unbound at 10 µM in [1] was found to be 0.061. In [2], the fraction unbound at 2 µM amounted to 0.057. Further, the results for the IC50 in [3], in data set [15] and in data set [16] were 325 nM, 400 nM and more than 90000 nM, respectively. For the same compound, the Vd in data set [4] was found to be 0.5 L/kg; in data set [18] it was 0.18 L/kg. The fraction unbound at 0.2 µM in data set [5] was 0.053. Also, the clearance in [6] was 5 mL/min/kg; in data set [10], 2 mL/min/kg. For the same compound, the Stability entry in [7] and in [19] was “Stable” in each case. Besides, the “fold change (FC)” value in [8] is recorded as 0.65. Also, the solubility was 299 µM (≈ 207 µg/mL) in data set [9], 48 µM (≈ 33.2 µg/mL) in data set [14] and 1290 µM (≈ 892 µg/mL) in data set [21]. Besides, the Ki was found to be 6.7 nM in [11] and 2.8 nM in [13]. For the same compound, the half-life in data set [12] was 66 min; in data set [20] it was 60 min. Also, the Kb in data set [15] stood at 68 nM. Moreover, the Activity result in data set [17] is reported as “Non-toxic”.
For the compound `CCCCCOC(=O)N1CCN(C(=O)[C@H](CCC(=O)O)NC(=O)c2cc(N3CCC(C(N)=O)CC3)cc(-c3ccccc3)n2)CC1`, the Vd in data set [4] turned out to be 2.2 L/kg. The compound also displayed a clearance in data set [6] of 44 mL/min/kg. The Stability entry in data set [7] and in data set [19] was “Stable” in each case. Further, the “fold change (FC)” value in [8] was 0.9. In addition, the half-life in data set [12] is 36 min. In addition, the Ki in data set [13] came out at 6.5 nM. For the same compound, the IC50 in data set [15] came to 2400 nM. In data set [22], the bioavailability came to 2%.
Take `CCCCCOC(=O)N1CCN(C(=O)[C@H](CCC(=O)O)NC(=O)c2cc(N3CCC(C(=O)N(CC)CC)CC3)cc(-c3ccccc3)n2)CC1`: the Vd in [4] came out at 2.5 L/kg; in [24], 0.12 L/kg. In addition, the clearance in [6] is 13 mL/min/kg; in [25], 2 mL/min/kg. Further, the Stability result in data set [7] and in data set [19] was “Stable” in each case. The “fold change (FC)” value in [8] is on record as 0.65. In addition, the half-life in data set [12] is 36 min; in data set [23] it was 42 min. The Ki in data set [13] was found to be 4 nM. In data set [15], the IC50 was 520 nM.
`CCCCOC(=O)N1CCN(C(=O)[C@H](CCC(=O)O)NC(=O)c2cc(N3CCC(C(=O)N4CCCC4)CC3)cc(-c3ccccc3)n2)CC1`: the fraction unbound at 10 µM in data set [1] worked out at 0.033. Besides, in data set [2], the fraction unbound at 2 µM stood at 0.044. Besides, the IC50 is 255 nM in data set [3], 360 nM in [15] and more than 90000 nM in data set [16]. The Vd is 0.7 L/kg in [4] and 0.22 L/kg in data set [18]. The fraction unbound at 0.2 µM in data set [5] came to 0.034. In addition, the clearance turned out to be 5 mL/min/kg in data set [6] and 3 mL/min/kg in data set [10]. Also, the Stability entry in data set [7] and in data set [19] was “Stable” each time. Further, the “fold change (FC)” value in data set [8] stood at 0.54. Besides, the solubility in data set [9] amounted to 921 µM (≈ 623 µg/mL); in data set [14], 195 µM (≈ 132 µg/mL); in data set [21], 969 µM (≈ 656 µg/mL). For the same compound, the Ki in [11] was 6.3 nM; in data set [13], 2.1 nM. Besides, the half-life was 90 min in data set [12] and 48 min in data set [20]. Further, in data set [15], the Kb was 49 nM. The Activity result in [26] is listed as “Non-toxic”.
